Common to all, as to assay: growth of human tumour cells (NCI), 48 h
Assay [1] relates to NCI-H23 lung.
In assay [2] the test system is K-562 leukemia.
Assay [3] deals with UACC-62 melanoma.
For assay [4], the system named is U251 CNS.
For assay [5], the system named is RXF 393 renal.
Assay [6] concerns CCRF-CEM leukemia.
In assay [7] the test system is KM12 colon.
Assay [8] concerns ACHN renal.
Assay [9] deals with SF-539 CNS.
Assay [10] has as its system SF-268 CNS.

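All cell lines were grown in 96-well plates and treated with compound for 48 hours. GI50 = concentration required for 50% inhibition of growth. TGI: total growth inhibition.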

Take `O=C(c1ccco1)c1c(C(F)(F)F)n([O-])c2ccccc2[n+]1=O`: the GI50 is 1.21 µM in [1]; 0.207 µM in assay [2]; 0.536 µM in [3]; 0.719 µM in assay [4]; 1.43 µM in [5]; 0.671 µM in assay [6]. Moreover, the GI50 in assay [7] is 0.911 µM; in assay [8], 0.506 µM; in [9] it was 0.28 µM; in assay [10] it was 0.515 µM. Moreover, the TGI in assay [1] was 7.26 µM; in assay [2], 3.43 µM; in [3], 2.61 µM; in assay [4], 18.2 µM; in [5], 9.45 µM; in [6] it was 3.71 µM. The TGI in [7] was found to be 8.18 µM; in [8] it was 4.21 µM; in assay [9], 0.712 µM; in [10], 2.56 µM.
As for `COc1ccccc1/C=N\N=C(N/N=C/c1ccccc1OC)N/N=C/c1ccccc1OC`, the GI50 was 3.91 µM in [1]; 3.09 µM in assay [2]; 2.55 µM in [3]; 2.67 µM in assay [4]; 5.01 µM in [5]; 3.22 µM in [6]. Moreover, the GI50 in assay [7] was 2.96 µM; in assay [8], 3.14 µM; in assay [9], 4.27 µM; in [10], 3.69 µM. For the same molecule, the TGI in assay [1] was over 100 µM; in assay [2] it was 36.4 µM; in [3], 7.71 µM; in assay [4] it was 15 µM; in assay [5], over 100 µM; in [6] it was over 100 µM. Besides, the TGI was 16.2 µM in assay [7], over 100 µM in assay [8], over 100 µM in [9] and over 100 µM in [10].
`C=CC(=O)N[C@H]1CCOC[C@H]1Nc1ncc2cc(-c3c(Cl)c(OC)cc(OC)c3Cl)ccc2n1`: the GI50 in assay [1] is 22 µM; in assay [2], 13.9 µM; in assay [3], 10.7 µM; in [4] it was 26.5 µM; in assay [5], 5.35 µM; in [6] it was 21.9 µM. The GI50 was 27.1 µM in assay [7], 15.8 µM in assay [8], 12.5 µM in assay [9] and 16.2 µM in assay [10]. For the same molecule, the TGI in assay [1] is over 100 µM; in assay [2], over 100 µM; in assay [3], 30.6 µM; in assay [4], over 100 µM; in [5] it was 36.7 µM; in [6] it was over 100 µM. Moreover, the TGI in assay [7] is over 100 µM; in assay [8] it was over 100 µM; in assay [9] it was 29.9 µM; in assay [10], over 100 µM.
On to `O=C(O)c1cc2cc(OCc3ccccc3)c(OCc3ccccc3)cc2[nH]1`, for which the GI50 was 17.2 µM in assay [1]; 29.3 µM in [2]; 17.5 µM in assay [3]; 17.7 µM in [4]; 14.6 µM in [5]; 33.6 µM in assay [6]. Moreover, the GI50 in [7] is 19.3 µM; in [8], 25.4 µM; in assay [9], 19.9 µM; in assay [10], 26.4 µM. Moreover, the TGI in assay [1] is 38.1 µM; in assay [2] it was over 100 µM; in assay [3], 34.5 µM; in assay [4], 37 µM; in assay [5], 30.4 µM; in assay [6], over 100 µM. Also, the TGI in [7] was 36.2 µM; in assay [8], 90.1 µM; in assay [9], 44 µM; in assay [10] it was 79.7 µM.
For `c1cn2cc(-c3ccc4cn[nH]c4c3)nc(Nc3ccc(N4CCOCC4)cc3)c2n1`, the GI50 was 15.2 µM in assay [1]; over 100 µM in [2]; 11.8 µM in [3]; 10 µM in assay [4]; 2.47 µM in assay [5]; over 100 µM in [6]. Moreover, the GI50 in assay [7] is 0.479 µM; in [8] it was 11.1 µM; in assay [9], 6.54 µM; in assay [10] it was 5.11 µM. The TGI is 55 µM in [1]; over 100 µM in assay [2]; 37.8 µM in assay [3]; 21.6 µM in [4]; 18.3 µM in assay [5]; over 100 µM in assay [6]. The TGI in [7] is 59 µM; in assay [8], 32.2 µM; in assay [9], 23.1 µM; in assay [10] it was 27.4 µM.
`COc1cc(/C=C2\CN(C)C/C(=C\c3cc(CN4CCCCC4)c(O)c(OC)c3)C2=O)cc(CN2CCCCC2)c1O`: the GI50 in assay [1] was 5.11 µM; in assay [2], 3.12 µM; in assay [3], 7.2 µM; in assay [4], 3.1 µM; in assay [5], 2.01 µM; in [6], 2.77 µM. For the same molecule, the GI50 was 2.17 µM in assay [7], 3.95 µM in assay [8], 2.75 µM in assay [9] and 3.97 µM in assay [10]. Also, the TGI is 21.4 µM in assay [1]; 35.2 µM in assay [2]; 20.3 µM in [3]; 13.2 µM in assay [4]; 6.86 µM in assay [5]; 7.52 µM in [6]. Besides, the TGI in assay [7] worked out at 4.97 µM; in assay [8], 13.9 µM; in [9], 8.17 µM; in assay [10], 17.4 µM.
On to `C=C1C(=O)O[C@H]2[C@H]1CC/C(COC(=O)NCCc1c[nH]c3ccc(OC)cc13)=C\CC[C@@]1(C)O[C@@H]21`, for which the GI50 was 2.25 µM in assay [1]; 0.453 µM in assay [2]; 1.72 µM in [3]; 4.3 µM in assay [4]; 1.46 µM in [5]; 0.64 µM in [6]. Besides, the GI50 is 6.49 µM in [7], 1.38 µM in assay [8], 1.78 µM in assay [9] and 3 µM in [10]. For the same molecule, the TGI worked out at 5.84 µM in [1]; 3.29 µM in [2]; 3.77 µM in assay [3]; 15.9 µM in assay [4]; 2.92 µM in [5]; 4.36 µM in assay [6]. The TGI in [7] is 23.2 µM; in assay [8] it was 2.72 µM; in assay [9], 4.01 µM; in assay [10] it was 13.1 µM.
On to `Cc1cccc(C2=NC(C)(C)C(C)(C)N=C2c2cccc(C)n2)n1`, for which the TGI in assay [1], in assay [2], in [3], in assay [4], in [5] and in [6] was over 100 µM each time. For the same molecule, the TGI in [7], in assay [8], in assay [9] and in assay [10] was over 100 µM throughout.
With `C=CCC(N[C@H](CO)c1ccccc1)c1cn(C(=O)OCC)c2ccccc12` (stereo not given in full), the GI50 in [1] is 15.8 µM; in [2], 8.51 µM; in assay [3], 16.4 µM; in assay [4], 17.8 µM; in [5], 0.98 µM; in assay [6], 44 µM. Besides, the GI50 is 16.7 µM in [7], 16.1 µM in assay [8], 18.6 µM in assay [9] and 32.1 µM in assay [10]. Further, the TGI is 32 µM in [1]; 33.2 µM in assay [2]; 30.6 µM in assay [3]; 33.2 µM in assay [4]; 21.3 µM in [5]; over 100 µM in [6]. The TGI in [7] is 34.8 µM; in [8], 30.2 µM; in [9] it was 35.1 µM; in assay [10] it was 89.9 µM.
For the molecule `CC(C)(C)C(=O)ON1N=NC2C3CC(OCc4ccccc4)(OCc4ccccc4)C(O3)C21` (stereo not given), the TGI in [1] came to 43.4 µM; in assay [2] it was 37 µM; in assay [3], 44.9 µM; in assay [4] it was 31.4 µM; in assay [5], 36.5 µM; in assay [6], 45.8 µM. In addition, the TGI in assay [7] is 55.4 µM; in [8] it was 91.5 µM; in [9], 31 µM; in assay [10] it was 88.2 µM.
Turning to `COc1ccc2c(c1)C(c1ccccc1Cl)=Nc1c(n[nH]c1C)N2`, the GI50 in assay [1] is 22.6 µM; in [2] it was over 25 µM; in assay [3] it was 25 µM; in [4], 5.74 µM; in [5], 3.7 µM; in [6], over 25 µM. The GI50 is 0.995 µM in assay [7], over 20.5 µM in assay [8], 4.95 µM in assay [9] and 12.5 µM in assay [10]. Besides, the TGI in assay [1], in assay [2], in assay [3], in assay [4], in assay [5] and in [6] was over 25 µM throughout. Further, the TGI in [7] was over 25 µM; in assay [8] it was over 25 µM; in assay [9], over 18.8 µM; in assay [10], over 25 µM.
Turning to `C/C(=N\N=C(/[Se])N1CC2CCC(CC2)C1)c1ccccn1`, the TGI in [1] was determined as 1.57 µM; in assay [2] it was 0.575 µM; in [3], 0.711 µM; in [4], 1.51 µM; in assay [5] it was 0.359 µM; in assay [6] it was 0.808 µM. In addition, the TGI in assay [7] was determined as 1.54 µM; in assay [8], 1.78 µM; in assay [9] it was 1.2 µM; in [10] it was 5.43 µM.

The record behind these values is PubChem BioAssay (NCI).
